Experiments:
Assay in all cases: drug sensitivity score (DSS) (DSS (dimensionless)); higher = more sensitive (stronger drug response)
FIMM-PDC1 = patient-derived ovarian cancer cells; conditions: genetic perturbation: none (patient-derived cell culture)
Outline: (§1)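 Ovarian cancer cell lines with shRNA induced by 100 ng/ml doxycycline for at least three days, along with patient-derived cultures, were seeded at 1 000 – 1 500 cells per well onto drugs pre-plated in 384-well plates at five concentrations over a 10,000-fold range and incubated for three days at 37 °C and 5.0 % CO2. CellTiter-Glo luminescence measured on a PHERAstar FS served as the viability readout, and each drug's dose-response curve was summarised as a drug sensitivity score following an earlier published method.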

FIMM-PDC3 = patient-derived ovarian cancer cells; conditions: genetic perturbation: none (patient-derived cell culture)
Outline: as §1

FIMM-PDC4 = patient-derived ovarian cancer cells; conditions: genetic perturbation: none (patient-derived cell culture)
Outline: as §1

FIMM-PDC5 = patient-derived ovarian cancer cells; conditions: genetic perturbation: none (patient-derived cell culture)
Outline: as §1

FIMM-PDC6 = patient-derived ovarian cancer cells; conditions: genetic perturbation: none (patient-derived cell culture)
Outline: as §1

FIMM-PDC7 = patient-derived ovarian cancer cells; conditions: genetic perturbation: none (patient-derived cell culture)
Outline: as §1

JHOS2 = system: JHOS2
Outline: as §1

Kuramochi = system: Kuramochi
Outline: as §1

OVSAHO = system: OVSAHO
Outline: as §1

[1] = genetic perturbation: DOX-induced PTK7 shRNA knockdown
[2] = genetic perturbation: DOX-induced control shRNA

Row | Structure (SMILES) | drug sensitivity score (FIMM-PDC1) | drug sensitivity score (FIMM-PDC3) | drug sensitivity score (FIMM-PDC4) | drug sensitivity score (FIMM-PDC5) | drug sensitivity score (FIMM-PDC6) | drug sensitivity score (FIMM-PDC7) | drug sensitivity score (JHOS2; [1]) | drug sensitivity score (JHOS2; [2]) | drug sensitivity score (Kuramochi; [1]) | drug sensitivity score (Kuramochi; [2]) | drug sensitivity score (OVSAHO; [1]) | drug sensitivity score (OVSAHO; [2])
1 | CC(C)[C@H]1C(=O)N[C@@H](CCCNC(=N)N)C(=O)NCC(=O)N[C@@H](CC(=O)O)C(=O)N[C@H](Cc2ccccc2)C(=O)N1C [Cilengitide] | 0.75 | < 0 | < 0 | < 0 | < 0 | 1.3 | 5 | 0.9 | 8.65 | 3 | 9.6 | 6.1
2 | CCNCCS(=O)(=O)NC[C@@]1(c2ccccc2)SC(NC(=O)C(C)(C)C)=NN1C(=O)C(C)(C)C [Litronesib] | 7.8 | 11.2 | 15.2 | 21.2 | 2.8 | 4.3 | 8.5 | 7.7 | 10.7 | 3.1 | 8.2 | 9.3
3 | CN(C)C[C@@H]1CCn2cc(c3ccccc32)C2=C(C(=O)NC2=O)c2cn(c3ccccc23)CCO1 [Ruboxistaurin] | 6.85 | 8.5 | 7.8 | 11.1 | 6.8 | 8.1 | 6.2 | 6.5 | 7.25 | 7 | 9.8 | 6
4 | COc1ccc(-c2ccc3ncc4c(c3c2)n(-c2ccc(N3CCNCC3)c(C(F)(F)F)c2)c(=O)n4C)cn1 [NVP-BGT226] | 12.2 | 12.6 | 19.7 | 25.6 | 21.5 | 22.4 | 11 | 15 | 10.1 | 13.4 | 17.8 | 16.2
5 | CN1CC[C@H](c2c(O)cc(O)c3c(=O)cc(-c4ccccc4Cl)oc23)[C@H](O)C1 [Alvocidib] | 16.6 | 15.8 | 17.4 | 22.2 | 16.7 | 20.4 | 14.4 | 14.5 | 16.6 | 14.8 | 16.7 | 14.7
6 | COc1c(C)cnc(Cn2cnc3c(Cl)nc(N)nc32)c1C [BIIB021] | 12.8 | 12.1 | 18.8 | 18 | 13.5 | 14.6 | 16.5 | 12.6 | 10.4 | 0.9 | < 0 | 8.1
7 | Cc1sc2c(c1C)C(c1ccc(Cl)cc1)=N[C@@H](CC(=O)Nc1ccc(O)cc1)c1nnc(C)n1-2 [Birabresib] | 4.2 | 4.3 | 5.6 | 12.7 | 3.7 | 8.3 | 9.6 | 8.1 | 13.9 | 4.8 | 7.3 | 13.4
8 | CO[C@H]1C[C@@H]2CC[C@@H](C)[C@@](O)(O2)C(=O)C(=O)N2CCCC[C@H]2C(=O)O[C@H]([C@H](C)C[C@@H]2CC[C@@H](OP(C)(C)=O)[C@H](OC)C2)CC(=O)[C@H](C)/C=C(\C)[C@@H](O)[C@@H](OC)C(=O)[C@H](C)C[C@H](C)/C=C/C=C/C=C/1C [Ridaforolimus] | 1.65 | 4.5 | 5 | 9.5 | 3.2 | 11.4 | < 0 | 4.1 | 2.5 | 0.7 | 0.4 | 5.3
9 | CC[C@@H]1C(=O)N(C)c2cnc(Nc3ccc(C(=O)N[C@H]4CC[C@H](N5CCN(CC6CC6)CC5)CC4)cc3OC)nc2N1C(C)C [Volasertib] | 3.9 | 7 | 6 | 14.8 | 0.9 | 4.2 | 14.2 | 4.7 | 9.65 | 2.4 | 6.4 | 6.4
10 | CC(C)[C@H](C(=O)Nc1ccc(C(=O)NO)cc1)c1ccccc1 [AR-42] | 9.25 | 10 | 5.8 | 10.9 | 10.5 | 9.8 | 9.1 | 8.5 | 12.8 | 6.6 | 12.4 | 9
11 | Cc1nn(C)c(COc2ccc(N3CCN(S(=O)(=O)N(C)C)CC3)cc2)c1-c1cccc2c(CCCOc3cccc4ccccc34)c(C(=O)O)n(CCN3CCOCC3)c12 | 5.7 | 8.8 | 7.2 | 4.9 | 4.6 | 6.5 | 7.3 | 3.4 | 6.25 | 5.8 | 10.1 | 4.9
12 | C/C=C1\NC(=O)[C@H]2CSSCC/C=C/[C@H](CC(=O)N[C@H](C(C)C)C(=O)N2)OC(=O)[C@H](C(C)C)NC1=O [Romidepsin] | 26.2 | 29.6 | 25.6 | 26.9 | 31.1 | 27.2 | 24.3 | 24.1 | 30.7 | 21.6 | 28.1 | 25.4
